Assay results: US4485039A, “Synthetic analogues of α-melanotropin” (University Patents, Inc., priority 1982, dated 1984)
Positions of bridges follow the written chain, without caps; N, C: chain ends. Residues, ends and D or L forms follow the SMILES beside them.

Assays:
[1] = test system: lizard (Anolis carolinensis) skin melanophores; test: lizard skin bioassay, melanosome dispersion in vitro; format: cell-based
[2] = test system: adenylate cyclase in Cloudman S-91 mouse melanoma tumors; conditions: [α-32P]ATP conversion to [32P]cAMP
Excerpt: ATP conversion to [^32 P]cAMP in Cloudman S-91 mouse melanoma tumors as described in Sawyer, et al., Proc. Nat. Acad. Sci. USA, 77, 5754-5758 (1980). [^32 P]cAMP was isolated, purified and detected according to Salomon, et al., Anal. Biochem., 24, pp. 18-26 (1976).

[3] = test system: frog (Rana pipiens) skin melanophores; test: frog skin bioassay, melanosome dispersion in vitro; format: cell-based; conditions: standard frog skin assay
Excerpt: The Example 1 compounds were examined for their biological effects on melanosome dispersion in vitro using the standard frog (Rana pipiens) skin bioassay and photo-reflectance methods. See, Hadley, et al., Science, 213, pp. 1025-1027 (1981).

[4] = cited from earlier work
[5] = test system: frog (Rana pipiens) skin melanophores; test: duration of melanosome dispersion, frog skin bioassay; format: cell-based; conditions: 5×10^-10 M, skins rinsed at 60 minutes
Experimental: The compounds of Example 1 were examined with respect to the duration of their ability to stimulate melanosome dispersion in vitro using the frog (Rana pipiens) skin bioassay.
At time zero, 5×10^-10 M of α-MSH was added to one group of frog skins and 5×10^-10 M of the test compounds were individually added to the second and third groups of skins. At time=60 minutes, skins were rinsed and transferred to Ringers solution.

## CC(=O)N[C@H]1CSSC[C@@H](C(=O)N[C@@H](CCCCN)C(=O)N2CCC[C@H]2C(=O)N[C@H](C(N)=O)C(C)C)NC(=O)[C@H](Cc2c[nH]c3ccccc23)NC(=O)[C@H](CCCNC(=N)N)NC(=O)[C@H](Cc2ccccc2)NC(=O)[C@H](Cc2cnc[nH]2)NC(=O)[C@H](CCC(=O)O)NC1=O [acetyl-[half-Cys^4, half-Cys^10]-α-MSH4-13NH.sbsb.2] (Ac-CEHFRWCKPV-NH2; disulfide 1-7)
[1]
  potency relative to the native hormone: about 1.6 times

## [Half-Cys^4, half-Cys^10 ]-α-MSH
[2]
  maximal adenylate cyclase activity compared with α-MSH: same maximal adenylate cyclase activity as α-MSH
  potency relative to the native hormone: approximately three
[1]
  potency relative to the native hormone: approximately thirty

## [half-Cys^5, half-Cys^11 ]-α-MSH
[3]
  potency compared with α-MSH (in words): less potent than α-MSH
chymotrypsin
  enzymatic stability compared with α-MSH (in words): enzymatically more stable than α-MSH

## Ac-Ser^1 -Tyr^2 -Ser^3 -Met^4 -Glu^5 -His^6 -Phe^7 -Arg^8 -Trp^9 -Gly^10 -Lys^11 -Pro^12 -Val^13 -NH2 [α-MSH]
chymotrypsin
  time to complete degradation to a biologically inactive compound: ≤ 5 minutes
[4]
  half-life in serum: less than 2 minutes
[5]
  time until activity completely reversed: less than three
